pIC50: −log10 of the molar value. ≈ marks a conversion by molar mass, not a printed value.

One assay has as its system NCI-H1650. Put plainly: Growth inhibition of human NCI-H1650 cells. Format: functional.
Assay [1] concerns NCI-H460. Put plainly: Growth inhibition of human H460 cells. It counts as functional.
The subject of assay [2] is A549. Put plainly: Growth inhibition of human A549 cells. It counts as functional.
Assay [3] deals with MCF7. Put plainly: Potency index, ratio of cisplatin IC50 to compound IC50 for antiproliferative activity against human MCF7 cells. Format: functional.
In assay [4] the test system is K562. Put plainly: Potency index, ratio of cisplatin IC50 to compound IC50 for antiproliferative activity against human K562 cells. It counts as functional.
Assay [5] has as its system MCF7. Put plainly: Antiproliferative activity against human MCF7 cells after 48 hrs by MTT assay. The settings on record: MCF7, 48 h. It counts as functional, cell-based.
Assay [6] has as its system A549. Put plainly: Potency index, ratio of cisplatin IC50 to compound IC50 for antiproliferative activity against human A549 cells. It counts as functional.
The test system of assay [7] is A549. Put plainly: Antiproliferative activity against human A549 cells after 48 hrs by MTT assay. It counts as functional, cell-based. As to conditions: A549, 48 h. Background: Tetrazolium dyes change colour on reduction, which living cells bring about.
Assay [8] deals with K562. Put plainly: Antiproliferative activity against human K562 cells after 48 hrs by MTT assay. As to conditions: K562, 48 h. Format: functional, cell-based.
Assay [9] has as its system HepG2. Put plainly: Potency index, ratio of doxorubicin IC50 to compound IC50 for anticancer activity against human HepG2 cells by MTT assay. Format: functional.
The subject of assay [10] is HepG2. Put plainly: Anticancer activity against human HepG2 cells by MTT assay. It counts as functional, cell-based.
Assay [11] concerns A549. Put plainly: Cytotoxicity against human A549 cells assessed as reduction in cell viability by MTT assay. It counts as functional, cell-based.
The next assay concerns DLD-1. Put plainly: Cytotoxicity against human DLD1 cells assessed as reduction in cell viability. Format: functional, cell-based.
In the next assay the test system is Ishikawa. Put plainly: Growth inhibition of human Ishikawa cells relative to control. It counts as functional.
In assay [12] the test system is HepG2. Put plainly: Cytotoxicity against human HepG2 cells assessed as reduction in cell viability after 48 hrs by MTT assay. Format: functional, cell-based. The settings on record: HepG2, 48 h.
The test system of the next assay is COS-7. Put plainly: Cytotoxicity against African green monkey COS7 cells assessed as reduction in cell viability by MTT assay. Format: functional, cell-based. The settings on record: Chlorocebus aethiops.
For assay [13], the system named is MDA-MB-231. Put plainly: Anticancer activity against human MDA-MB-231 cells by MTT assay. It counts as functional, cell-based.
A further assay relates to 769-P. Put plainly: Anticancer activity against human 769-P cells by MTT assay. It counts as functional, cell-based.
Assay [14] deals with MCF7. Put plainly: Growth inhibition of human MCF7 cells. It counts as functional.
Assay [15] deals with MDA-MB-231. Put plainly: Cytotoxicity against human MDA-MB-231 cells assessed as reduction in cell viability after 24 hrs by MTT assay. It counts as functional, cell-based. The settings on record: Homo sapiens, MDA-MB-231, 24 h.
Assay [16] has as its system HeLa. Put plainly: Anticancer activity against human HeLa cells by MTT assay. Format: functional, cell-based.
Another assay concerns PC-3. Put plainly: Cytotoxicity against human PC3 cells assessed as reduction in cell viability by MTT assay. It counts as functional, cell-based.
In assay [17] the test system is A549. Put plainly: Cytotoxicity against human A549 cells assessed as reduction in cell viability after 24 hrs by MTT assay. Format: functional, cell-based. The settings on record: A549, 24 h.
The test system of assay [18] is HeLa. Put plainly: Antiproliferative activity against human HeLa cells by MTT assay. Format: functional, cell-based.
For assay [19], the system named is HeLa. Put plainly: Cytotoxicity against human HeLa cells assessed as reduction in cell viability by MTT assay. Format: functional, cell-based.
For assay [20], the system named is A549. Put plainly: Anticancer activity against human A549 cells by MTT assay. It counts as functional, cell-based.
In a further assay the test system is SF-268. Put plainly: Growth inhibition of human SF268 cells. Format: functional.
Assay [21] has as its system K562. Put plainly: Anticancer activity against human K562 cells by MTT assay. It counts as functional, cell-based.
The next assay has as its system Caco-2. Put plainly: Antiproliferative activity against human Caco2 cells after 72 hrs by ELISA. It counts as functional, cell-based. The settings on record: Caco-2, 72 h. Background: ELISA stands for enzyme-linked immunosorbent assay.
Assay [22] relates to HeLa. Put plainly: Cytotoxicity against human HeLa cells assessed as reduction in cell viability after 24 hrs by MTT assay. Format: functional, cell-based.
For assay [23], the system named is MDA-MB-231. Put plainly: Cytotoxicity against human MDA-MB-231 cells assessed as reduction in cell viability after 24 hrs in hypoxic condition by MTT assay. The settings on record: MDA-MB-231, 24 h.
Another assay relates to L02. Put plainly: Cytotoxicity against human L02 cells assessed as reduction in cell viability after 24 hrs by MTT assay. Format: cell-based. The settings on record: L02, 24 h.
In assay [24] the test system is NCI-H460. Put plainly: Growth inhibition of human NCI-H460 cells. Format: functional.
Another assay relates to HT-29. Put plainly: Cytotoxicity against human HT-29 cells assessed as reduction in cell viability by MTT assay. It counts as functional, cell-based.
Assay [25] deals with HepG2. Put plainly: Antiproliferative activity against human HepG2 cells after 72 hrs by ELISA. As to conditions: HepG2, 72 h. It counts as functional, cell-based.
Another assay has as its system HEK-293T. Put plainly: Cytotoxicity against HEK293T cells assessed as reduction in cell viability after 24 hrs by MTT assay. The settings on record: Homo sapiens. It counts as cell-based.
Assay [26] deals with MCF7. Put plainly: Cytotoxicity against human MCF7 cells assessed as reduction in cell viability by MTT assay. It counts as functional, cell-based. The settings on record: Homo sapiens, MCF7.
A short description of assay [27]: Cytotoxicity against BHK cells assessed as reduction in cell viability by MTT assay. The settings on record: Cricetinae.

In the case of `COc1ccc(C(=O)CC(c2c(O)c3ccccc3oc2=O)c2c(O)c3ccccc3oc2=O)c(O)c1`, the values for the GI50 with NCI-H1650, in the assay with NCI-H460 [1] and in the assay on A549 [2] were 50.1 µM, 35.7 µM and 33.3 µM, respectively.
Take `CCN(CC)CCOc1ccc(-c2c(-c3ccc(NC(=O)CCCCCCCCC(=O)Nc4ccc(-c5c(-c6ccc(OCCN(CC)CC)cc6)c6ccc(OCCN(CC)CC)cc6oc5=O)cc4)cc3)c(=O)oc3cc(OCCN(CC)CC)ccc23)cc1`: the “Ratio IC50” value with MCF7 [3], with K562 [4] and with A549 [6] was 2.4 - 8.3 in each case. Further, the pIC50 with MCF7 [5], with A549 [7] and in the assay with K562 [8] was 5.43 to 6.00 in each case.
Turning to `O=c1ccc2ccc(OCCn3cc(COc4ccc5ccc(=O)oc5c4)nn3)cc2o1`, in the assay on HepG2 [9], the “Ratio IC50” value was 2.1. The pIC50 (usually the IC50 on a negative log10 scale, so that one unit is a factor of ten) in the assay on HepG2 [10] was 6.42.
Regarding `COc1cccc2c1C(=O)c1c(O)c3c(c(O)c1C2=O)C[C@@](O)(C(=O)CO)C[C@@H]3O[C@H]1C[C@H](N)[C@H](O)[C@H](C)O1` [DOXORUBICIN], the pIC50 with A549 [11] was 5.67 to 6.09; in the assay with DLD-1, 3.79; in the assay on HepG2 [12], 5.52; in the assay with COS-7, 5.52 to 5.69; in the assay on 769-P, 6.05 to 6.35; in the assay with MDA-MB-231 [15], 5.29 to 5.40. In addition, the pIC50 with PC-3 was 5.67 to 6.09; in the assay with A549 [17] it was 5.29 to 5.40; with HeLa [18] it was 5.96; with HeLa [19], 5.52 to 6.09; in the assay on Caco-2, 5.29; in the assay on HeLa [22] it was 5.29 to 5.40. Further, the pIC50 with MDA-MB-231 [23] is 6.22; with L02 it was 5.96; with HT-29, 5.67 to 6.09; in the assay with HepG2 [25] it was 5.39; in the assay on HEK-293T, 5.42; with HepG2 [10], 6.05 to 6.35. Besides, the “growth inhibition (GI)” value in the assay on Ishikawa is recorded as 11.55 - 95.52%. Further, the concentration for half-maximal inhibition (IC50) (usually the concentration that inhibits the measured activity by half) was 0.45 to 0.89 µg/mL (≈ 0.828 to 1.64 µM) in the assay with MDA-MB-231 [13], 0.54 to 0.6 µg/mL (≈ 0.994 to 1.1 µM) in the assay on HeLa [16], 0.54 to 0.6 µg/mL (≈ 0.994 to 1.1 µM) in the assay on A549 [20] and 0.54 to 0.6 µg/mL (≈ 0.994 to 1.1 µM) in the assay with K562 [21]. For the same molecule, the GI50 in the assay with MCF7 [14], in the assay on SF-268 and with NCI-H460 [24] was 0.04 to 0.09 µM in each case.
For the molecule `CN(Cc1cnc2nc(N)nc(N)c2n1)c1ccc(C(=O)N[C@@H](CCC(=O)O)C(=O)O)cc1` [METHOTREXATE], the pIC50 in the assay with MCF7 [26] was 4.57; in [27], 3.82.
